# Source: the supplement of paper PMC10307832
# How the values were obtained:
# Test in all cases: relative viability (nuclei count vs DMSO), 5 days (fraction); higher = more cells survive
# [1] = compound: N#CC[C@H](C1CCCC1)n1cc(-c2ncnc3[nH]ccc23)cn1 [Ruxolitinib] + C[C@@H](Oc1cc(-c2cnn(C3CCNCC3)c2)cnc1N)c1c(Cl)ccc(F)c1Cl [Crizotinib] (partner 1 µM)
# Method in brief: (§1)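 Lung cancer cell lines were pin-tool dosed in 1536-well plates on the day after seeding, with either a lone drug or a fixed anchor-drug dose plus five library-drug doses (not always all listed) in √10 steps. Nuclei were counted on 4× images after 5 days. Relative viability is the ratio of treated-well to vehicle-well nuclei counts, with each value a median of duplicate plates.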
# [2] = compound: N#CC[C@H](C1CCCC1)n1cc(-c2ncnc3[nH]ccc23)cn1 [Ruxolitinib] + COc1cccc2cc(-c3nc([C@H]4CC[C@H](C(=O)O)CC4)n4ncnc(N)c34)[nH]c12 [OSI-027] (partner 0.5 µM)
# Method in brief: as §1
# [3] = compound: CS(=O)(=O)c1ccc(-c2cnc(N)c(C(=O)Nc3ccccc3)n2)cc1 [VE-821] + O=C(CCCCCCC(=O)Nc1ccccc1)NO [Vorinostat] (partner 1 µM)
# Method in brief: as §1
Cell Line,relative viability ([1]; first compound 0.08 µM),relative viability ([1]; first compound 0.253 µM),relative viability ([1]; first compound 0.8 µM),relative viability ([1]; first compound 2.53 µM),relative viability ([1]; first compound 8 µM),relative viability ([2]; first compound 0.08 µM),relative viability ([2]; first compound 0.253 µM),relative viability ([2]; first compound 0.8 µM),relative viability ([2]; first compound 2.53 µM),relative viability ([2]; first compound 8 µM),relative viability ([3]; first compound 0.08 µM),relative viability ([3]; first compound 0.253 µM),relative viability ([3]; first compound 0.8 µM),relative viability ([3]; first compound 2.53 µM),relative viability ([3]; first compound 8 µM)
NCI-H1666,1.03,0.974,0.986,0.878,0.909,0.877,0.842,0.864,0.782,0.968,1.14,1.06,1.18,1.01,0.942
EPLC-272H,0.925,0.945,1.2,0.729,0.863,0.275,0.282,0.291,0.267,0.272,0.575,0.378,0.332,0.428,0.157
NCI-H838,0.751,0.723,0.682,0.591,0.342,0.39,0.318,0.386,0.266,0.267,0.755,0.688,0.697,0.69,0.542
NCI-H2087,0.928,1.07,1,0.919,0.615,0.488,0.413,0.585,0.478,0.642,0.667,0.666,0.838,0.79,0.675
LC-2-ad,,0.485,0.49,0.474,0.465,,0.667,0.859,0.733,0.524,0.758,0.748,0.768,0.8,0.659
NCI-H2405,0.853,0.87,0.984,0.761,0.596,,0.503,0.684,0.623,0.468,1.09,0.977,0.992,0.984,0.859
HCC-366,0.513,0.551,0.549,0.449,0.257,0.984,0.771,1.01,0.819,0.828,0.426,0.269,0.28,0.121,0.0472
NCI-H3122,0.332,0.269,0.282,0.312,0.282,,0.296,1.22,0.51,0.569,1.11,1.01,0.978,1.13,0.908
LU99A,0.588,0.655,0.532,0.612,0.519,0.339,0.305,0.298,0.295,0.268,0.515,0.462,0.471,0.431,0.299
NCI-H1650,,0.9,1.11,0.83,0.848,,0.651,0.98,0.769,0.641,0.498,0.737,0.524,0.578,0.437
EMC-BAC-2,0.801,0.782,0.85,0.68,0.445,0.391,0.344,0.358,0.359,0.224,0.495,0.423,0.431,0.416,0.338
HCC-78,0.305,0.273,0.308,0.322,0.324,0.36,0.337,0.33,0.383,0.365,0.388,0.53,0.393,0.493,0.417
NCI-H1734,0.66,0.721,0.795,0.633,0.559,0.586,0.491,0.671,0.417,0.637,1.03,0.762,0.733,0.707,0.44
COR-L23,0.717,0.681,0.733,0.7,0.433,0.806,0.743,0.868,0.729,0.645,0.418,0.561,0.36,0.373,0.157
RERF-LC-KJ,0.863,0.868,0.864,0.827,0.687,0.56,0.442,0.685,0.537,0.536,0.765,0.731,0.609,0.761,0.623
NCI-H1437,0.924,1.08,0.872,0.795,0.778,0.965,0.758,0.926,0.752,0.78,0.847,0.797,0.901,0.777,0.611
NCI-H1915,0.903,0.925,1.01,0.835,0.864,0.622,0.619,0.663,0.463,0.464,0.623,0.509,0.451,0.536,0.457
SK-MES-1,1.03,0.984,1.02,0.925,0.702,0.676,0.587,0.702,0.534,0.512,1.18,1.02,0.857,1.08,0.358
NCI-H522,,,,,,0.811,0.667,0.78,0.628,0.605,1.02,0.811,0.921,0.994,0.732
NCI-H1299,0.981,0.909,0.973,0.839,0.704,,,,,,,,,,
NCI-H1651,0.8,0.893,0.847,0.779,0.842,0.774,0.718,0.842,0.659,0.723,0.562,0.606,0.583,0.556,0.531
NCI-H661,0.941,1.02,0.941,,0.841,0.752,0.664,0.834,0.664,0.666,0.839,0.836,0.815,0.783,0.627
NCI-H1944,0.99,0.955,0.998,0.928,1.02,0.398,0.38,0.368,0.374,0.408,0.581,0.498,0.498,0.492,0.243
